Laboratory results taken from US6664231B1, “Anti-fungal peptides” (priority 1993, dated 2003).

What was measured:
[1] = test system: C. albicans (SLU-1 and other strains); assay type: cell-based, Candida albicans
Experimental: (§1) In additional experiments, a fluorescence-activated cell sorter (FACS) based assay was developed to test the fungicidal activity of the peptides. […] Difco) agar. Several colonies were picked from the agar plate and inoculated into 5 mL of Sabouraud's Dextrose media in a sterile 10 mL polypropylene tube. The fungal cultures were incubated for about 18 hours at 30° C. […] The culture were centrifuged at 3000 rpm for 5 minutes (Sorvall RT 6000B). After centrifugation, the supernatant was decanted leaving the fungal pellets in the centrifuge tubes. The pellets were resuspended in 15 mL of SDB. Both suspensions were combined into one tube and mixed to generate a stock culture. […] After determining the concentration of the stock, appropriate dilutions were made with Sabouraud's Dextrose media to obtain 100 mL of 1×10^6 cell/mL. […] After the 1 hour incubation, all the tubes were centrifuged at 3000 rpm for 5 minutes. […] Louis, Mo.) in Dulbecco's PBS (DPBS, GIBCO, Grand Island, N.Y.) except the autofluorescence control, which was resuspended in DPBS alone. The tubes were mixed and incubated in the dark at room temperature for at least 20 minutes. […] The settings were adjusted appropriately to the following approximate parameters: Cells were analyzed (10,000 cells/tube) and their respective fluorescence determined. […] The population of dead (i.e., propidium iodide stained) fungal cells was determined by a fluorescence threshold between the negative control and positive control.

Candida albicans = experiment: Radial diffusion assay, Candida species (Table 2); assay type: cell-based; conditions: higher effective concentration of agarose than Table 1
[2] = test system: Crytococcus Neoformans 13690; assay type: cell-based, Cryptococcus neoformans
Experimental: as §1, with “alone.” for “alone. The tubes were mixed and incubated in the dark at room temperature for at least 20 minutes.”

in vitro = in vitro ADME, rat or human serum; conditions: serum, half-life of peptide in serum as detected by HPLC analysis; read-out: HPLC Peptide in Serum t ½ (converted)
Experimental: For these serum stability experiments, peptides were prepared by solid phase peptide sythesis and purified to 94% or greater purity as described in Example 1. Blood was collected from metaphane anesthesized rats by aortic bleed into Vacutainer™ tubes and allowed to clot at room temperature for approximately 30 minutes, then centrifuged at 3000 rpm (about 1000×g) for 10 minutes at room temperature and the serum aspirated. In addition, frozen human serum (North American Biologics, Inc., Miami, Fla., cat. no. 2140, lot no. 94115) was thawed at room temperature and filtered through a 0.45 μm membrane before use.
A 1 mg/mL solution of an exemplary XMP peptide to be tested was added to an equal volume of either rat or human serum described above and maintained at 37° C. At 0, 1, 2, and 4 hours, 100 μL were removed and processed by solid phase extraction for HPLC analysis as follows. Serum samples were prepared for HPLC using C-18 Sep-Pak cartridges (1 mL cartridge with 100 mg of sorbent, Waters Corp., Milford, Mass.). One hundred μL of serum sample were added to an equal volume of 1% TFA and mixed for 30 seconds on a Vortex mixer. The sample was then applied to a C-18 Sep-Pak cartridge that had been conditioned by washing with 1 mL of methanol followed by 1 mL Milli-Q water. Weakly reed components were eluted by washing with 1 mL of 0. 1% TFA. The bound peptide was eluted with two volumes of 250 μL 80% acetonitrile/0.065% TFA.
The material eluted from the Sep-Pak cartridge was analyzed on a Michrom Ultaafast Microprotein Analyzer equipped with a 150 mm×1 mm, 5μ particle, 300 Å pore C-8 Zorbax column. The column oven was set to 40° C., the flow rate was 100 μL/minute, and injection volumes were typically 5-10 μL. HPLC was performed using 5% acetonitrile/0.1% TFA in water as mobile phase A, and 80% acetonitrile/0.065% TFA as mobile phase B. The eluate was monitored spectiophotometrically at 214 nm. Peptide standards were dissolved in mobile phase A at 0. 1 mg/mL. The gradient was 25-35% B/10 minutes followed by a 5 minute wash step of 100% B and reequilibration at 25% B for 10 minutes.

[3] = test system: C. albicans designated CA-1, Strain SLU-1; conditions: designated CA-1, Strain SLU-1, 18 h
Experimental: In each broth assay screening procedure, a colony of C. albicans designated CA-1, Strain SLU-1 that was received from the laboratories of G. Matuschak and A. Lechner, St. Louis University Hospital, St. Louis, Mo., where the strain was maintained, was inoculated into a tube containing 5 mL Sabouraud Dextrose broth (2% dextrose, 1% neopeptone) and incubated overnight at 37° C. with shaking. The overnight culture was diluted 1:50 into 5 mL of fresh broth and incubated for 3 hours at 37° C. Organisms were pelleted by centrifugation in a Beckman J-6M centrifuge for 5 minutes at 3000 rpm (1500×g) and the pellets were resuspended in 5 mL phosphate buffered saline (PBS) and the optical density at 570 nm was determined. On the basis of the determination that one OD unit equals 3×10^7 colony forming units/mL, yeast cells were diluted to 2×10^6 cells/mL in Sabouraud Dextrose broth.
Domain III peptides derived from or based on BPI to be screened were originally constituted in Dulbecco's-PBS, were diluted to 100 μg/mL in broth and were serially diluted 2-fold into wells of a 96 well sterile, flat bottom, non-pyrogenic tissue culture plate (Costar, Cambridge, Mass.). All assays were performed in triplicate. 2×10^5 organisms were added at 100 μl per well; final volume was 200 μL/well; the plate was incubated on a shaker at 37° C. for 18 hours; and the optical densities for each well were read at 590 nm. […] The broth assay data may be set out in terms of minimum inhibitory concentration (MIC), i.e. the lowest concentration required to reduce the optical density at 590 nm to below 0.1.

| Compound | Activity of peptides on C. albicans SLU-1, IC50 ([1]; Table 5, percentage of dead cells, 1 hour, 30° C.) [µg/mL] | Anti-fungal activity: pmol/30 mm^2 zone, Candida albicans (Candida albicans) | Activity on various strains of C. albicans, IC50, 10231 ([1]; SLU-1 and other strains) [µg/mL] | Activity on various strains of C. albicans, IC50, 14053 ([1]; SLU-1 and other strains) [µg/mL] | Activity on various strains of C. albicans, IC50, 26555 ([1]; SLU-1 and other strains) [µg/mL] | Activity on various strains of C. albicans, IC50, 90028 ([1]; SLU-1 and other strains) [µg/mL] | Activity on various strains of C. albicans, IC50, SLU#1 ([1]; SLU-1 and other strains) [µg/mL] | Activity of Peptides on Crytococcus Neoformans 13690, IC50 [2] [µg/mL] | half-life at 0.5 mg/mL (in vitro) [h] | minimum inhibitory concentration (MIC), lowest concentration required to reduce the optical density at 590 nm to below 0.1 [3] [µg/mL] |
| --- | --- | --- | --- | --- | --- | --- | --- | --- | --- | --- |
| C[C@@H]1[C@H](O)[C@@H](C)/C=C/C=C/C=C/C=C/C=C/C=C/C=C/[C@H](O[C@@H]2O[C@H](C)[C@@H](O)[C@H](N)[C@@H]2O)C[C@@H]2O[C@](O)(C[C@@H](O)C[C@@H](O)[C@H](O)CC[C@@H](O)C[C@@H](O)CC(=O)O[C@H]1C)C[C@H](O)[C@H]2C(=O)O [Amphotericin B, amphotericin B, reference compound] | 79.36 | 11 pmol/30 mm^2 zone |  |  |  |  |  |  |  |  |
| H-SKVKWLIQLFHKK-NH2 [XMP.284] |  |  | 1.86 | 0.50 | 0.59 | 1.08 | 0.31 | 0.11 | 4.2 |  |
| H-KSKVGWLIQLFHKK-NH2 [XMP.13] |  | 2,233 pmol/30 mm^2 zone |  |  |  |  |  |  | 2.5 | 12.5 |
